Reference: the NIST ThermoML archive (doi:10.1021/je200673a)

Assay: molar heat capacity at constant pressure
Conditions: 101.33 kPa, Crystal, Vacuum adiabatic calorimetry

C(#Cc1ccccc1)c1ccccc1 [1,2-diphenylethyne]
Conditions	molar heat capacity at constant pressure [J/K/mol]
5 K	0.4461
7.76 K	1.66
8.24 K	1.997
8.4 K	2.155
8.56 K	2.246
8.71 K	2.325
8.87 K	2.454
9.02 K	2.473
9.17 K	2.661
9.32 K	2.644
9.46 K	2.813
9.61 K	3.003
9.75 K	3.203
9.9 K	3.352
10 K	3.39
10.04 K	3.408
10.23 K	3.58
10.46 K	3.861
10.7 K	4.163
10.94 K	4.495
11.19 K	4.753
11.43 K	4.952
11.67 K	5.282
11.92 K	5.556
12.16 K	5.878
12.4 K	6.207
12.65 K	6.564
12.9 K	6.777
13.14 K	7.156
13.39 K	7.478
13.65 K	7.835
13.9 K	8.246
14.15 K	8.579
14.4 K	8.944
14.66 K	9.243
14.91 K	9.637
15.16 K	9.985
15.42 K	10.37
15.67 K	10.79
15.93 K	11.12
16.19 K	11.5
16.44 K	11.93
16.7 K	12.28
16.96 K	12.67
17.22 K	13.04
17.48 K	13.53
17.74 K	13.89
18 K	14.4
18.26 K	14.75
18.52 K	15.13
18.78 K	15.54
19.05 K	15.99
19.31 K	16.45
19.57 K	16.8
19.83 K	17.2
20 K	17.46
20.1 K	17.57
20.52 K	18.22
21.06 K	19.09
21.59 K	19.97
22.13 K	20.72
22.66 K	21.52
23.2 K	22.37
23.74 K	23.22
24.28 K	24.1
24.82 K	25
25 K	25.27
25.36 K	25.89
25.9 K	26.74
26.44 K	27.46
26.99 K	28.2
27.53 K	29.01
28.08 K	29.84
28.62 K	30.62
29.17 K	31.47
29.72 K	32.26
30 K	32.68
30.27 K	33.13
30.82 K	33.87
31.36 K	34.72
31.91 K	35.51
32.46 K	36.31
33.02 K	37.01
33.57 K	37.75
34.12 K	38.45
34.67 K	39.14
35 K	39.59
35.23 K	39.87
35.78 K	40.61
36.33 K	41.23
36.89 K	41.86
37.44 K	42.57
38 K	43.15
38.56 K	43.79
39.11 K	44.41
39.67 K	45.07
40 K	45.41
40.22 K	45.63
40.78 K	46.31
41.33 K	46.9
41.89 K	47.45
42.45 K	48.18
43 K	48.73
43.56 K	49.34
44.12 K	49.91
44.67 K	50.46
45 K	50.83
45.23 K	51.09
45.79 K	51.68
46.35 K	52.17
46.91 K	52.71
47.47 K	53.2
48.03 K	53.68
48.59 K	54.18
49.15 K	54.59
49.71 K	55.12
50 K	55.37
50.26 K	55.73
50.82 K	56.2
51.38 K	56.69
51.94 K	57.24
52.5 K	57.84
53.06 K	58.52
53.62 K	59.22
54.18 K	59.95
54.74 K	60.54
55 K	60.87
55.3 K	61.31
55.87 K	61.85
56.43 K	62.34
56.99 K	62.76
57.55 K	63.28
58.11 K	63.73
58.67 K	64.14
59.23 K	64.53
59.8 K	64.94
60 K	65.09
60.36 K	65.36
60.92 K	65.81
61.48 K	66.28
62.04 K	66.76
62.6 K	67.25
63.16 K	67.82
63.73 K	68.11
64.29 K	68.62
64.85 K	68.97
65 K	69.08
65.42 K	69.41
65.98 K	69.58
66.54 K	69.95
67.11 K	70.3
67.67 K	70.73
68.23 K	71.09
68.8 K	71.47
69.36 K	71.95
69.92 K	72.22
70 K	72.22
70.61 K	72.52
71.41 K	72.9
72.21 K	73.45
73.01 K	73.99
73.82 K	74.48
74.62 K	74.91
75 K	75.15
75.42 K	75.39
76.23 K	75.72
77.03 K	76.12
77.83 K	76.43
78.64 K	76.81
79.44 K	77.36
80 K	77.65
80.24 K	77.8
81.05 K	78.26
81.85 K	78.59
82.56 K	78.83
82.65 K	79
83.36 K	79.36
83.46 K	79.49
84.16 K	79.79
84.26 K	79.97
84.96 K	80.29
85 K	80.26
85.77 K	80.6
86.57 K	81.07
87.37 K	81.61
88.17 K	81.87
88.98 K	82.43
89.78 K	82.92
90 K	82.96
90.58 K	83.29
91.39 K	83.69
92.19 K	84.3
92.99 K	84.62
93.8 K	85.08
94.6 K	85.51
95 K	85.79
95.4 K	85.87
96.21 K	86.49
97.01 K	86.97
97.81 K	87.46
98.61 K	87.8
99.42 K	88.33
100 K	88.7
100.22 K	88.79
101.02 K	89.52
101.82 K	89.71
102.62 K	90.12
103.42 K	90.81
104.22 K	91.27
105.03 K	91.64
105.84 K	92.04
106.64 K	92.61
107.45 K	93.03
108.25 K	93.65
109.06 K	94.16
109.87 K	94.48
110 K	94.56
110.68 K	94.84
111.49 K	95.38
112.3 K	95.96
113.12 K	96.26
113.93 K	96.77
114.74 K	97.3
115.56 K	97.84
116.37 K	98.29
117.19 K	98.7
118.01 K	99.29
118.83 K	99.69
119.65 K	100.31
120 K	100.39
120.47 K	100.58
121.29 K	101.29
122.11 K	101.7
